Experiments:
ATPTR2Ap = assay: Uptake of L-leucyl-L-[3H]leucine and competition, PB1X-9B[pPTF4]; details: PB1X-9B[pPTF4], pH 5.5, dileucine and leucine at 100-fold
Protocol: The kinetics of ATPTR2A-mediated transport of peptides in yeast was evaluated by transforming pPTF4 into the S. cerevisiae peptide transport mutant, PB1X-9B and measuring the uptake of tritiated Leu-Leu dipeptide.
(§1) L-leucyl-L [^3 H]leucine trifluoroacetic acid (TFA) was synthesized by standard solution phase techniques (Naider, F. et al., J. Biol. Chem. 249:9-20 (1974)). Uptake of L-leucyl-L-[H]leucine was performed as by Island, M. D. et al (J. Bacteriol. 169:2132-2136 (1987)), with the following modifications. Cells were grown to late log phase (26×10^7 cells/ml) overnight in SC with 2% glucose, 1 mg/ml allantoin plus amino acids to supplement auxotrophic markers. To induce peptide transport. 5-15 ml from this culture was added to 100 ml fresh medium such that the density was 3.0×10^6 cells/ml. This culture was allowed to grow (approx. 2 hrs.) to a density of 6.0×10^6 cells/ml and then harvested by centrifugation. The pelleted cells were washed twice with 10 ml cold dH2 O and suspended in cold 2% glucose to a final concentration of 2×10^8 cells/ml and incubated at 30° C. for 15 min. 500 μl of cells were then added to an equal volume of reaction mixture (30° C.) and incubated at 30°-C. At 20, 40, 60, 90, and 120 sec. intervals, 190 μl portions were removed, filtered over filters (pore size, 0.45 μm; GN-6; Gelman Sciences, Inc., Ann Arbor, Mich.) and washed 2 times with 5 ml cold, sterile dH2 O and once with 5 ml dH2 O at room temperatures. Filters were placed in scintillation vials with 5 ml of Budget-Solve scintillation cocktail (Research Products International Corp., Mount Prospect, Ill.) and counted (liquid scintillation counter; LS-7000; Beckman Instruments, Inc., Fullerton, Calif.). The final concentration of the components in the uptake assay was 1% glucose, 40 mM sodium citrate-potassium phosphate buffer (pH 5.5), and 1.5×105 M L-leucyl-L-[^3 H]leucine (specific activity, 10 mCi/mmole). Uptake is expressed as nanomoles per mg dry weight.

A. thaliana seedlings = assay: Root assay, toxic peptide plus competitor peptide; type: in vivo, Arabidopsis thaliana
Protocol: Approximately 15 A. thaliana seeds were placed in a row at one end of 10 cm plate containing 20 ml of Arabidopsis growth media (Kranz and Kirchheim 1987). The seeds were incubated 3-5 days in the light with the plate set in an upright position. When the roots were approximately 1-2 cm long, sterile paper filter disks were placed immediately in front of the root tips on the right and left side of the plate 2 cm from the edge of the plate. A line was drawn across the plate using the top of the disks as a guide marking zero growth. 5 μl of toxic amino acid analog, toxic peptide, or toxic peptide plus competitor was added to one disk while H2 O was place on the other disk. The plates were incubated for an additional 3-5 days. The average length of the roots was measured from the line and the results expressed as a percentage of control root growth.

[1] = target: T1, yeast peptide transport system (Saccharomyces cerevisiae, UniProt P32901); assay: Competition for L-leucyl-L-[3H]leucine uptake, PB1X-9B[pJP9]; type: cell-based; details: pH 5.5
T1 construct: The ptr2 gene encodes a 602 amino acid hydrophobic polypeptide with 12 putative hydrophobic segments; expressed in transfected cells; host or cells: S. cerevisiae peptide transport mutant PB1X-9B (ptr2-2) transformed with pJP9
T1 sequence (P32901 1-601): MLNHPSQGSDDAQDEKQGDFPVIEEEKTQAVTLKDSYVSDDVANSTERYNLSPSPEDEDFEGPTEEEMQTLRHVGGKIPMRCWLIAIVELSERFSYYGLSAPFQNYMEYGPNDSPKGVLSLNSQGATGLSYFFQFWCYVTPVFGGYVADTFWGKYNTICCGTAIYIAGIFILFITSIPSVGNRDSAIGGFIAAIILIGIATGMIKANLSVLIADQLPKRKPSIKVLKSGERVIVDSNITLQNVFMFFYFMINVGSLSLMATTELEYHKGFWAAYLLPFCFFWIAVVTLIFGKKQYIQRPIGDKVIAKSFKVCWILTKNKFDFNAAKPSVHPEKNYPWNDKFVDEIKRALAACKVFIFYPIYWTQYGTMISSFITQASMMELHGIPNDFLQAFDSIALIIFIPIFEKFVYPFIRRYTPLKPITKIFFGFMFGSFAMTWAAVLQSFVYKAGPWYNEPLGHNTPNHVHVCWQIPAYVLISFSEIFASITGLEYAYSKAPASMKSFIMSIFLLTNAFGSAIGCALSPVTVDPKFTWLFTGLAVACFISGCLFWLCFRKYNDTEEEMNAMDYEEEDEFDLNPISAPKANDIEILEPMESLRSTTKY
Protocol: as §1

[2] = system: S. cerevisiae strains tested; assay: Toxic peptide disk assay, statements covering several strains; type: cell-based, Saccharomyces cerevisiae; details: wild type (S288C) and transformants
Protocol: (§2) Since ptr mutants are deficient in peptide transport, they are unable to take up toxic peptides. This inability renders such mutants resistant to the toxic effect of the peptides. In order to determine whether the polynucleotides of the present invention could restore toxic peptide sensitivity to ptr2 mutants, the sensitivity of plasmid-transformed cells was determined. Sensitivity to toxic amino acids and peptides was measured as described by Island, M. D. et al. (J. Bacteriol. 169:2132-2136 (1987)). Briefly, a filter disk containing 0.38 μmoles of the toxic compound was placed on a lawn containing 5×10^6 cells and the plate incubated at 30° C. for 1 to 2 days. Resulting halos were measured across their diameter. The toxic dipeptides Leu-Eth, Ala-Eth, Leu-F-Phe and Oxalysine were synthesized by standard solution phase techniques (Naider, F. et al., J. Biol. Chem. 249:9-20 (1974). The results of this experiment are shown in Table 2 (values are the mean of the diameters of the observed zone of inhibition in millimeters±standard error of the mean of at least two independent experiments).

PB1X-9B (pJP9) [3] = assay: Toxic peptide disk assay, mutant with yeast peptide transport gene; type: cell-based, Saccharomyces cerevisiae; details: disk with 0.38 μmoles, lawn of 5×10^6 cells, 30° C., 1 to 2 days, mean ± standard error
Protocol: as §2

PB1X-9B (pPTF4) [4] = assay: Toxic peptide disk assay, mutant with plant gene ATPTR2A; type: cell-based, Saccharomyces cerevisiae
Protocol: as §2

S288C = assay: Toxic peptide disk assay, wild type; type: cell-based, Saccharomyces cerevisiae; details: disk with 0.38 μmoles, lawn of 5×10^6 cells, 30° C., 1 to 2 days, mean ± standard error
Protocol: as §2

A. thaliana seeds = assay: Seed germination with toxic peptides (minimum inhibitory concentration); type: in vivo, Arabidopsis thaliana; details: seeds exposed to the toxic compound
Protocol: Thus, A. thaliana seeds and seedlings were exposed to Ethionine, Ala-Eth, Leu-Eth, Leu-fluorophenylalanine or oxalysine containing peptides, and the minimum inhibitory concentrations (MIC) were determined for each of the toxic compounds.
To measure the minimum inhibitory concentration of the toxic peptides, 10 to 15 A. thaliara seeds were place on solid Arabidopsis growth media with decreasing concentrations of toxic peptide. The seeds were incubated for 4 days in the dark and then scored for germination.

PB1X-9B [5] = assay: Toxic peptide disk assay, peptide transport mutant; type: cell-based, Saccharomyces cerevisiae
Protocol: as §2

PB1X-9B (pJP9) [6] = assay: Growth on peptides, mutant transformed with yeast peptide transport gene; type: cell-based, Saccharomyces cerevisiae
Protocol: (§3) In addition, untransformed PB1X-9B, PB1X-9B transformed with plasmid pJP9 encoding the above-described yeast peptide transport gene, PB1X-2AΔ and PB1X-2A, the ptr2^+ parental strain to PB1X-2AΔ strain, were also assayed. Each strain was grown overnight in SC media plus uracil (non-transformed) or minus uracil (transformed) plus amino acids to stationary phase and harvested by centrifugation. Cells were then washed twice with sterile dH2 O and resuspended at 5×10^6 cells/ml. 5 μl of each suspension was applied as a small spot to a 2 ml volume of solid media in a 24 well plate. All peptides were suspended in sterile, deionized water and added to an equal volume of SC medium plus the appropriate amino acids and uracil when required. The medium for each assay thus consisted of SC medium plus or minus uracil supplemented with 80 μM of a specific peptide and auxotrophic requirements minus the amino acid components of the added peptide. The plates were incubated at 30° C. for 72 hrs. and then scored for growth.

PB1X-9B (pPTF4) [7] = assay: Growth on peptides, mutant transformed with plant gene ATPTR2A; type: cell-based, Saccharomyces cerevisiae; details: PBIX-9B (pPTF4); 80 μM peptide in SC medium, 30° C., 72 hrs
Protocol: as §3

PB1X-9B [8] = assay: Growth on peptides as amino acid source, peptide transport mutant; type: cell-based, Saccharomyces cerevisiae; details: PBIX-9B; 80 μM peptide in SC medium, 30° C., 72 hrs
Protocol: as §3

PB1X-2AΔ (pDTF1) = assay: Growth on peptides, deletion strain transformed with ATPTR2B; type: cell-based, Saccharomyces cerevisiae; design: key: +: Growth was scored as uniform colony formation; -: negative controls which showed no growth; details: PBIX-2AΔ (pDTF1); 80 μM peptide in SC medium, 30° C., 72 hrs
Protocol: as §3, with “Thus, the peptide transport mutant PB1X-9B and deletion strain PB1X-2AΔ transformed with plasmids pPTF4 (ATPTR2A) or pDTF1 (ATPTR2B) were grown on various peptides to assess the specificity of the plant peptide transporter. In” for “In”

[9] = disk with 0.38 μmoles, lawn of 5×10^6 cells, 30° C., 1 to 2 days, mean ± standard error

## NCC(=O)CCC(=O)O [ALA, γ-aminolevulinic acid]
ATPTR2Ap
  competition for uptake of [3H]-dileucine: lack of inhibition
ATPTR2Ap; listed as γ-aminolevulinic acid
  competition for uptake of [3H]-dileucine: did not compete
A. thaliana seedlings; toxic peptide Ala-Eth
  reversal of toxicity by competitor (in words): unable to reverse the inhibition
  root growth with toxic peptide plus competitor: 0 percentage of control root gro
A. thaliana seedlings; toxic peptide Leu-Eth
  reversal of toxicity by competitor (in words): unable to reverse the inhibition
  root growth with toxic peptide plus competitor: 0 percentage of control root gro
[1]
  competition for uptake of [3H]-dileucine: able to compete

## CCSCC[C@H](N)C(=O)O [Eth, ethionine]
[2]
  sensitivity to toxic compound: most sensitive
PB1X-9B (pJP9) [3]
  diameter of zone of inhibition: 46.5 ± 1.5 millimeters
PB1X-9B (pPTF4) [4]
  sensitivity or resistance to toxic compound: sensitive
PB1X-9B (pPTF4) [4]; [9]
  diameter of zone of inhibition: 46.5 ± 0.5 millimeters
S288C
  diameter of zone of inhibition: 39.0 ± 3.0 millimeters
A. thaliana seeds
  root length at which growth was arrested: 1-2 mm
PB1X-9B [5]
  sensitivity or resistance to toxic compound: sensitive
PB1X-9B [5]; [9]
  diameter of zone of inhibition: 44.5 ± 3.5 millimeters

## NCCOC[C@H](N)C(=O)O [Oxa-Lys, oxalysine]
A. thaliana seeds
  root length at which growth was arrested: 1-2 mm

## tetra-Lys: SEQ ID NO:5 (KKKK)
PB1X-9B (pJP9) [6]; PB1X-9B transformed with pJP9
  growth on peptide (in words): showed growth on all peptides except
PB1X-9B (pJP9) [6]; PBIX-9B (pJP9), 80 μM peptide in SC medium, 30° C., 72 hrs
  growth on peptide: -
PB1X-9B (pPTF4) [7]
  growth on peptide: -
PB1X-9B [8]
  growth on peptide: -
PB1X-2AΔ (pDTF1)
  growth on peptide: -

## tri-Ala: competitor tripeptide
ATPTR2Ap
  competition for uptake of [3H]-dileucine: uptake competition similar to that seen for Leu-Leu
A. thaliana seedlings; toxic peptide Ala-Eth
  reversal of toxicity by competitor (in words): unable to reverse the inhibition
  root growth with toxic peptide plus competitor: 0 percentage of control root gro
A. thaliana seedlings; toxic peptide Leu-Eth
  reversal of toxicity by competitor (in words): unable to reverse the inhibition
[1]
  competition for uptake of [3H]-dileucine: uptake competition similar to that seen for Leu-Leu

— patent US6080542A, “Plant peptide transport gene” (priority 1997, dated 2000)
